From patent publication US6121287A, “Quinoline derivatives” (Active Biotech AB, priority 1999, dated 2000)
Where two headings read alike, the source gives them in different places.

Experiments:
[1] = system: acute experimental autoimmune encephalomyelitis (aEAE); assay: inhibition of acute experimental autoimmune encephalomyelitis (aEAE) in mice; format: in vivo, mice (STUN female); conditions: for % aEAE Inhibition: percent inhibition of clinical scores vs saline treated controls
[2] = system: foetuses of pregnant female rats; assay: Teratogenic Effects in the Rat; format: in vivo; conditions: 6 mg/kg/day (dose given for the N-methyl-N-phenyl compound), subcutaneous, day 8 to 14 of pregnancy
Text: Teratogenic Effects in the Rat
The compounds were administrated subcutaneously to female rats during pregnancy, i.e., day 8 to 14 of pregnancy. The rats were caesarean sectioned and necropsied on day 20 after fertilization. The foetuses were examined for external and internal abnormalities.

[3] = system: foetuses of pregnant female rats; conditions: rat; background statement; cited from earlier work
beagle dogs = conditions: different breeds of beagle dogs; cited from earlier work
multiple sclerosis = conditions: cited from earlier work
cell-mediated immunity = conditions: cited from earlier work

Question: What does the source list for `CCN(C(=O)c1c(O)c2c(SC)cccc2n(C)c1=O)c1ccccc1` [Compound A, N-ethyl-N-phenyl-1,2-dihydro-4-hydroxy-5-thiomethyl-1-methyl-2-oxo-quinoline-3-carboxamide]?
Answer: % aEAE Inhibition ([1]; 0.04 mg/kg p.o.): 28%; % aEAE Inhibition ([1]; 0.2 mg/kg p.o.): 49%; teratogenic effect [2]: non-teratogenic

Question: With `CSc1cccc2c1c(O)c(C(=O)N(C)c1ccc(F)cc1F)c(=O)n2C` [Compound B, N-methyl-N-(2,4-difluoro-phenyl)-1,2-dihydro-4-hydroxy-5-thiomethyl-1-methyl-2-oxo-quinoline-3-carboxamide] as the compound, how does the “% aEAE Inhibition” value ([1]; 0.2 mg/kg p.o.) read?
Answer: 67%

Question: And the “% aEAE Inhibition” value ([1]; 1 mg/kg p.o.)?
Answer: 97%

Question: What about the teratogenic effect [2] of the same compound?
Answer: non-teratogenic

Question: Which “% aEAE Inhibition” value ([1]; 0.04 mg/kg p.o.) does the source give for `CCN(C(=O)c1c(O)c2cc(SC)ccc2n(C)c1=O)c1ccccc1` [Compound C, N-ethyl-N-phenyl-1,2-dihydro-4-hydroxy-6-thiomethyl-1-methyl-2-oxo-quinoline3-carboxamide] here?
Answer: 0%

Question: What about the “% aEAE Inhibition” value ([1]; 0.2 mg/kg p.o.) of the same compound?
Answer: 23%

Question: Which “% aEAE Inhibition” value ([1]; 0.2 mg/kg p.o.) does the source give for `CSc1ccc2c(c1)c(O)c(C(=O)N(C)c1ccc(F)cc1F)c(=O)n2C` [Compound D, N-methyl-N-(2,4difluoro-phenyl)-l,2-dihydro-4-hydroxy-6-thiomethyl-1-methyl-2-oxo-quinoline-3-carboxamide] here?
Answer: 0%

Question: And the “% aEAE Inhibition” value ([1]; 1 mg/kg p.o.)?
Answer: 66%

Question: With `CSc1cccc2c1c(O)c(C(=O)N(C)c1ccccc1)c(=O)n2C` [N-methyl-N-phenyl-1,2-dihydro-4-hydroxy-5-thiomethyl-1-methyl-2-oxo-quinoline-3-carboxamide] as the compound, how does the teratogenic effect [2] read?
Answer: teratogenic

Question: Which “inhibition of aEAE (treatment control)” value ([1]; at ≥5 mg/kg, mice) does the source give for `CN(C(=O)c1c(O)c2ccccc2n(C)c1=O)c1ccccc1` [Roquinimex, roquinimex] here?
Answer: more than 50%

Question: And the teratogenic effect [3]?
Answer: teratogenic in the rat

Question: What about the “Beagle Pain Syndrome (BPS) induction” value (beagle dogs) of the same compound?
Answer: induce the Beagle Pain Syndrome (BPS)

Question: What about the “clinical efficacy in conditions associated with MS” value (multiple sclerosis; clinical trials comparing roquinimex to placebo) of the same compound?
Answer: hold promise in the treatment of conditions associated with MS

Question: And the “dose-limiting side effects in man” value (multiple sclerosis; man)?
Answer: induces dose-limiting side effects in man, e.g., a flu-like syndrome

Question: What about the immunomodulatory activities (cell-mediated immunity) of the same compound?
Answer: multiple immunomodulatory activities not accompanied with general immunosuppression
